One may read the melting point as the temperature of the solid-liquid transition.

Where a name gives a salt, the structure may show the parent alone.

One data set deals with T1, human alpha-2A receptor (Homo sapiens, UniProt P08913).
T1 construct: expressed in transfected cells; host or cells: C6 cells (permanent expression), membranes
T1 sequence (P08913 1-465): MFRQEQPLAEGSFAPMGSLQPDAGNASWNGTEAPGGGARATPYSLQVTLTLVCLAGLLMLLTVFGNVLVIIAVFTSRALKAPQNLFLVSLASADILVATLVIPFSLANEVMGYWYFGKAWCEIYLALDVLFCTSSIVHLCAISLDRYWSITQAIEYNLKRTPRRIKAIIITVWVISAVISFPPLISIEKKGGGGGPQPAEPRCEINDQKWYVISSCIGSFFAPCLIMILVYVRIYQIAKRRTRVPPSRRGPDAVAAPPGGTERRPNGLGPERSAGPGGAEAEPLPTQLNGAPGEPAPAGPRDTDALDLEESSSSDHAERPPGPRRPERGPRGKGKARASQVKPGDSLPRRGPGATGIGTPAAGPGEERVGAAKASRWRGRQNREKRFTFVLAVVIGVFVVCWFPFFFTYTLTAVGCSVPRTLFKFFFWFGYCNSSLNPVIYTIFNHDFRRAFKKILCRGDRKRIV
The experiment in a line: Binding to the adrenergic alpha-2A receptor, [3H]RX 821002, C6 cell membranes. The conditions noted are these: membranes of C6 cells expressing human alpha-2A; 2 nM [3H]RX 821002; 30 minutes at 25° C.; read-out: Affinity (pKi) Alpha-2A (converted). As to the method: (§1) Membranes of C6 cells permanently expressing either the human alpha-2A or alpha-2B receptor are prepared in Tris-HCl (pH=7.6). The binding tests are performed with 2 nM [^3H]RX 821002. The incubation medium is composed of 0.4 ml of cell membranes (10 μg of proteins), 0.05 ml of radioligand and 0.05 ml of test product or of phentolamine (10 μM) to determine the nonspecific binding. The reaction is quenched after incubation for 30 minutes at 25° C. by adding 3 ml of cold 50 mM Tris-HCl (pH=7.6), followed by filtration through Whatman GF/B filters using a Brandel. The Ki values are calculated according to the equation Ki=IC50/(1+C/Kd) in which C is the concentration and Kd the dissociation constant, pKi=−logKi. Under these conditions, it is seen that the compounds of the invention have high affinity for the receptors of the human adrenergic alpha-2A subtype, whereas they have little or no affinity for the receptors of the human adrenergic alpha-2B subtype (cf. above table). This unexpected receptor selectivity of the compounds of the invention, compared with the compounds of the prior art, may have a favorable impact on their tolerance.

For another data set, the target named is T2, human alpha-2B receptor (Homo sapiens, UniProt P18089).
T2 construct: expressed in transfected cells; host or cells: C6 cells (permanent expression), membranes
T2 sequence (P18089 1-450): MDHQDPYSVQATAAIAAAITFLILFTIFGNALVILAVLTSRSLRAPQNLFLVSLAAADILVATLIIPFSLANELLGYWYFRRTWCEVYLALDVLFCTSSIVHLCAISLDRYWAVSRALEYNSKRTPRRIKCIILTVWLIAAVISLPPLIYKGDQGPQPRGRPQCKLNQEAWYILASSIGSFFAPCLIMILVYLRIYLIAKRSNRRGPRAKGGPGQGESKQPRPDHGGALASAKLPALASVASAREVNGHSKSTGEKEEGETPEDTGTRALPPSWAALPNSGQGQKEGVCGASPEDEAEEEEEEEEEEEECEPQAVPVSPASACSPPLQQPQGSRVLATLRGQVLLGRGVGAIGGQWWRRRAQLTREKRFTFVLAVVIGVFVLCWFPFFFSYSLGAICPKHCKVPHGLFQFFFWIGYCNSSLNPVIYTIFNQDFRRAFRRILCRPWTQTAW
The experiment in a line: Binding to the adrenergic alpha-2B receptor, [3H]RX 821002, C6 cell membranes. The conditions noted are these: membranes of C6 cells expressing human alpha-2B; 2 nM [3H]RX 821002; 30 minutes at 25° C.; read-out: Affinity (pKi) Alpha-2B (converted). On the procedure:
as §1

For data set [1], the target named is T3, human alpha-2A adrenergic receptors (Homo sapiens, UniProt P08913).
T3 construct: host or cells: membrane preparations
T3 sequence (P08913 1-465): T1 sequence (P08913 1-465)
The experiment in a line: Measurement of the activation of the adrenergic alpha-2 receptors (GTPγS response on membrane preparations). The format is biochemical. Conditions: GTPγS response versus maximum stimulation by (−)-adrenalin, negative = inverse agonist, read-out: Intrinsic activity % stimulated. As to the method:
Measurement of the Activation of the Adrenergic Alpha-2 Receptors:
The responses as GTPγS are performed on membrane preparations in 20 mM HEPES (pH=7.4) with 30 μM of GDP, 100 mM of NaCl, 3 mM of MgCl2 and 0.2 mM of ascorbic acid. The maximum stimulation of the GTPγS is determined in the presence of […] of (−)-adrenalin and calculated versus the basal GTPγS response. The results are expressed versus either adrenalin or RX 81105-9. Under these conditions, the compounds of the invention are distinguished from most of the compounds of the prior art of the 4,5-dihydro-1H-imidazole and/or 1H-imidazole type in that they behave rather as inverse agonists on human alpha-2A adrenergic receptors (cf. above table).

The subject of data set [2] is Scopolamine-induced memory deficiency. The data set is described as follows: Test of scopolamine-induced memory deficiency (passive avoidance). The format is in vivo. Conditions: rats. From the text:
Test of Scopolamine-Induced Memory Deficiency:
Scopolamine has amnesiant properties in man and animals. Thus, its administration to a healthy person causes certain symptoms similar to what is observed in Alzheimer's disease. Scopolamine-induced memory deficiency is thus used as an experimental pharmacological model of this pathology. Scopolamine reduces the capacity for acquisition, memorization and recall in a test of passive avoidance in rats. […] The administration of scopolamine suppresses this reticence, and the test compounds counter the effect of scopolamine. The experimental protocol used is described in Psychopharmacol. 1992, 106, 26-30.

`CO[C@H]1c2ccccc2C2C[C@]21C1=NCCN1` (mixture of isomers) (as salt: fumarate) [XV-1, 2-(6-Methoxy-1a,6-dihydro-1H-cyclopropa[a]-inden-6a-yl)-4,5-dihydro-1H-imidazole] came in with a melting point of 173 to 175 °C.
Molecule `C[C@@H]1[C@H]2c3ccccc3C[C@@]12C1=NCCN1` (racemic) (as salt: fumarate) [XVII-2, 2-(1-exo-Methyl-1a,6-dihydro-1H-cyclopropa-[a]inden-6a-yl)-4,5-dihydro-1H-imidazole] had a melting point of 133 to 135 °C.
As for `CO[C@H]1c2ccccc2C2C[C@]21C1=NCCN1` (mixture of isomers) [XV-1, 2-(6-Methoxy-1a,6-dihydro-1H-cyclopropa[a]-inden-6a-yl)-4,5-dihydro-1H-imidazole], the Ki on human alpha-2A receptor is 12.6 nM; at human alpha-2B receptor it was 316 nM. Further, the Emax in data set [1] is -2%. Besides, the “Scopolamine-induced memory deficiency amplitude of the effect %” value in data set [2] (dose 2.5 mg/kg i.p.) is listed as “+168 (2.5) %”.
With `C[C@@H]1[C@H]2c3ccccc3C[C@@]12C1=NCCN1` (racemic) [XVII-2, 2-(1-exo-Methyl-1a,6-dihydro-1H-cyclopropa-[a]inden-6a-yl)-4,5-dihydro-1H-imidazole], the Ki at human alpha-2A receptor was 3.16 nM; at human alpha-2B receptor, 20 nM. Moreover, in data set [1], the Emax is -64%. Further, the “Scopolamine-induced memory deficiency amplitude of the effect %” value in data set [2] (dose 0.63 mg/kg i.p.) was “+181 (0.63) %”.
Molecule `COC1c2ccccc2C2CC21C1=NCCN1` (single isomer, unassigned; (+)) (as salt: fumarate) [(+) -XV-1, (+)-2-(6-Methoxy-1a,6-dihydro-1H-cyclopropa[a]inden-6a-yl)-4,5-dihydro-1H-imidazole] had a melting point of 170 to 172 °C.
Turning to `COC1c2ccccc2C2CC21C1=NCCN1` (single isomer, unassigned; (+)) [(+) -XV-1, (+)-2-(6-Methoxy-1a,6-dihydro-1H-cyclopropa[a]inden-6a-yl)-4,5-dihydro-1H-imidazole], the Ki on human alpha-2A receptor is 3.98 nM; on human alpha-2B receptor, above 10000 nM. In addition, the Emax in data set [1] is -63%.
Turning to `c1ccc2c(c1)CC1(C3=NCCN3)CC21` (single isomer, unassigned; (-)) (as salt: hydrochloride) [(−)-XVII-1, (−)-2-(1a,6-Dihydro-1H-cyclopropa[a]inden-6a-yl)-4,5-dihydro-1H-imidazole], the melting point lay in the range of 245 to 247 °C.
In the case of `CNCC(O)c1ccc(O)c(O)c1` (single isomer, unassigned; (-)) [(−)-adrenalin, reference compound], the Emax in data set [1] worked out at 100%.
Take `COc1cccc2c1C1C[C@@]1(C1=NCCN1)[C@H]2OC` (stereo in doubt) (as salt: fumarate) [XV-1a, 2-(2,6-Dimethoxy-1a,6-dihydro-1H-cyclopropa[a]inden-6a-yl)-4,5-dihydro-1H-imidazole]: the melting point was in the range of 177 to 179 °C.
For `COc1cc2c(cc1OC)C(=O)C(CC1CCN(Cc3ccccc3)CC1)C2` (stereo not drawn) [donepezil, reference compound], the “Scopolamine-induced memory deficiency amplitude of the effect %” value in data set [2] (dose 0.16 mg/kg i.p.) was “+67 (0.16) %”.
